Results published in patent publication US5776929A, “Benzodiazepine derivative” (Shionogi & Co., Ltd., priority 1993, dated 1998).

Key:
gastrin receptor = target: T1, gastrin receptor (Cavia porcellus, UniProt H0VZC5); experiment: Gastrin receptor antagonism, displacement of 125I-labeled gastrin, gastric (fundic) gland cells; assay type: binding, guinea pig (male Hartley); conditions: guinea pig gastric glands, 125I-gastrin 0.2 nM, 30 min, 25 °C; read-out: Receptor Gastrin (IC50)
T1 construct: stomach was extracted from each animal immediately, from which gastric glands were prepared; from tissue; host or cells: gastric (fundic) glands of male Hartley guinea pigs
T1 sequence (H0VZC5 1-426): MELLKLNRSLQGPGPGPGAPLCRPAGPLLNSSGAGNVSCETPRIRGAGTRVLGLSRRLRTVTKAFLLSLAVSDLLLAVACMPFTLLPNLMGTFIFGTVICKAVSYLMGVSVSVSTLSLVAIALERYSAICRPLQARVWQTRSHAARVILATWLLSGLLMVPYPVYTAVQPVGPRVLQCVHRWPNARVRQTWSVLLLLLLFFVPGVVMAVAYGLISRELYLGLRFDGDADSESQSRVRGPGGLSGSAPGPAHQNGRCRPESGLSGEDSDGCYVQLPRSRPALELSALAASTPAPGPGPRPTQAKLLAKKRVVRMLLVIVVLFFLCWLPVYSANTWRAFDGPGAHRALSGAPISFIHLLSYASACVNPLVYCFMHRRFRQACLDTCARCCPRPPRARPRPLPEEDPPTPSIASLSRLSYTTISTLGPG
Protocol: (§1) Male Hartley guinea pig (450-600 g) or male ddY mouse (24-30 g) were used.
(1) Gastrin Receptor Antagonism
Preparation of gastric glands:
Male Hartley guinea pigs (450-600 g) were killed by bleeding and stomach was extracted from each animal immediately, from which gastric glands were prepared.
Preparation of test compounds and procedures of displacing assay
A 1M solution of a compound to be tested in DMSO is prepared and diluted with 50% DMSO to obtain a ten-fold dilution series.
The mixture is incubated for 30 min at 25° C., centrifuged at 2000 rpm for 5 min and the supernatant is removed by aspiration. To the pellet is added ice-cooled incubation buffer and mixed gently, followed by an immediate centrifugation and removal of the supernatant by aspiration. The radioactivity is counted on gamma counter. The same procedure was repeated using 50% DMSO solution or human gastrin I (final concentration, 2 μM) instead of a solution of test compound so as to obtain the control value regarding total binding or the value regarding non-specific binding, respectively. […]
(§2) specific binding of control=total binding (cpm)-non-specific binding (cpm); and specific binding of test compound=[…]-non-specific binding (cpm).

gastric acid secretion = experiment: Inhibitory effect on gastric acid secretion by Schild method (pentagastrin-stimulated); assay type: in vivo, rat (male Sprague Dawley); conditions: intraduodenal, rat, read-out: Inhibitory Effect on acid secretion (Schild method), percent inhibition
Source text: Evaluation of Inhibitory Effect on Gastric Acid Secretion by Schild Method
Twenty four hour starved (ad libitum for water) male Sprague Dawley rats (8-week-old) were anesthetized with urethane (1.5 g/kg S.C.) and kept breathing with esophagus cannulas. After laparotomy, esophagus cannulas were inserted orally up to proventriculus and ligated around gastric cardiac. Perfusion cannulas were inserted from duodenum into stomach and ligated around pylorus. Another cannulas were placed into duodenum and ligated for administration of drug. After sutra of abdomen, stomach was perfused via the esophagus cannulas with physiological saline (37° C.) while collecting perfusate for a 15 min interval. The perfusate was subjected to titration with 0.001 N NaOH solution to determine the acidity. When the basal acid secretion became stable, pentagastrin ([…]) was administered in a sustained manner via common carotid vein for about 90 min until the acid secretion reached approximately the highest level, when a test compound (0.5% M.C. suspension) was administered into duodenum through cannulas. The perfusate was collected for a 15 min interval to monitor the acid secretion for 90 min. The percent inhibition was calculated as follows:
Percent inhibition (%)=100×(A-B)/(C-B)
A: the minimum value of total acidity observed after the administration of a test compound;
B: the total acidity obtained immediately before the administration of pentagastrin; and
C: the total acidity obtained immediately before the administration of a test compound.

CCK-A receptor = target: T2, CCK-A receptor (Mus musculus, UniProt O08786); experiment: CCK-A receptor antagonism, displacement of [3H]CCK-8, pancreas crude membrane; assay type: binding, mouse (male ddY); conditions: mouse pancreas membrane, [3H]CCK-8 1 nM, 90 min, 25 °C; read-out: Receptor CCK-A (IC50)
T2 construct: crude membrane specimen from mouse pancreas; from tissue; host or cells: pancreas of male ddY mice, crude membranes
T2 sequence (O08786 1-436): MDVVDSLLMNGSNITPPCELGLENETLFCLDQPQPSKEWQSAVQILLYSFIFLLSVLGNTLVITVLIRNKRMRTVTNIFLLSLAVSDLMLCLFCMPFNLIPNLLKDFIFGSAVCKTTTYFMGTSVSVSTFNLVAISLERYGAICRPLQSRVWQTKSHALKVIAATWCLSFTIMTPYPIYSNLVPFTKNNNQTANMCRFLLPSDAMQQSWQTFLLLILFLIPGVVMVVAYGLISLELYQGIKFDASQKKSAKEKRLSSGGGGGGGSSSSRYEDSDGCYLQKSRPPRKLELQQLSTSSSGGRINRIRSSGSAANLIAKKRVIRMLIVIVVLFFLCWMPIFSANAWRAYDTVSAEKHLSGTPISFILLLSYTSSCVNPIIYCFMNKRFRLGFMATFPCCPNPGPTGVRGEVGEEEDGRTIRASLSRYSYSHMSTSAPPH
Protocol: as §1
(§3) (2) CCK-A Receptor Antagonism and CCK-B Receptor Antagonism
(§4) Preparation of CCK receptor preparations
(§5) Male ddY mice (24 to 30 g) were killed by decapitation and cerebral cortex (CCK-B) and pancreas (CCK-A) were extracted immediately. Each of cerebral cortex and pancreas was mixed with 50 mM Tris-HCl buffer (pH 7.4) and homogenized with a teflon-glass homogenizer and polytron homogenizer to obtain crude membrane specimens.
(§6) Preparation of test compounds and procedures of displacing assay A 1M solution of a compound to be tested in DMSO is prepared and diluted with 50% DMSO to obtain a ten-fold dilution series.
(§7) The reaction is initiated by the addition of crude membrane specimen to solutions of different concentration each containing [^3 H]CCk-8 (final concentration, 1 nM). The mixture is incubated for 90 min at 25° C., filtered through glass filter with aspiration and washed with a cooled 50 mM Tris buffer. After the addition of Aquazol-2 cocktail the radioactivity is counted. The same procedure was repeated using 50% DMSO solution or Ceruletide (final concentration, 1 μM) instead of a solution of test compound so as to obtain the control value regarding total binding or the value regarding non-specific binding, respectively. […]
as §2

CCK-B receptor = target: T3, CCK-B receptor (Mus musculus, UniProt P56481); experiment: CCK-B receptor antagonism, displacement of [3H]CCK-8, cerebral cortex crude membrane; assay type: binding, mouse (male ddY); conditions: mouse cerebral cortex membrane, [3H]CCK-8 1 nM, 90 min, 25 °C; read-out: Receptor CCK-B (IC50)
T3 construct: crude membrane specimen from mouse cerebral cortex; from tissue; host or cells: cerebral cortex of male ddY mice, crude membranes
T3 sequence (P56481 1-453): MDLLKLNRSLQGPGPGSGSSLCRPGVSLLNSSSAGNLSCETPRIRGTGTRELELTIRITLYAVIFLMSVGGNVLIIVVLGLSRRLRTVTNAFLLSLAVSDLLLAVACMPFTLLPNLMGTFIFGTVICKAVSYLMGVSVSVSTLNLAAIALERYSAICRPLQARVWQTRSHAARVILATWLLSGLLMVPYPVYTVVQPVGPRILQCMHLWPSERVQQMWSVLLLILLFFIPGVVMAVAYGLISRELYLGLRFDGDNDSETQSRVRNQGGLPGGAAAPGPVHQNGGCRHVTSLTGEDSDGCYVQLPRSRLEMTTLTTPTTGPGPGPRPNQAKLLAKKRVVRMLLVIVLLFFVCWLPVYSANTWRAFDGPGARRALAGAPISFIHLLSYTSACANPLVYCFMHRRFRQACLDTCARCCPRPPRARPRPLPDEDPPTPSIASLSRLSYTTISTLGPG
Protocol: as §1, §3, §4, §5, §6, §7, §2

Structure (SMILES) | IC50 (gastrin receptor) [µM] | IC50 (CCK-A receptor) [µM] | IC50 (CCK-B receptor) [µM] | inhibition in vivo at 0.3 mg/kg (gastric acid secretion) [%] | inhibition in vivo at 0.1 mg/kg (gastric acid secretion) [%]
O=C(Nc1cccc(-c2nnn[nH]2)c1)NC1C(=O)N(CC(=O)c2cccs2)c2ccccc2N(CC(=O)c2cccs2)C1=O [Compound 20-iv, 1,5-Bis-(thienylcarbonylmethyl)-3-(N'-(m-tetrazolylphenyl)ureido)-1H-1,5-benzodiazepine-2,4(3H,5H)-dione] | 0.002 | 0.38 | 0.003 | 65 | 
O=C(Nc1cccc(-c2nnn[nH]2)c1)NC1C(=O)N(CC(=O)C2CC2)c2ccccc2N(CC(=O)C2CC2)C1=O [Compound 17-iv, 1,5-Bis-(cyclopropylcarbonylmethyl)-3-(N'-(m-(tetrazoyl)phenyl)ureido)-1H-1,5-benzodiazepine-2,4(3H,5H)-dione] | 0.002 | 2.9 | 0.008 |  | 44
O=C(Nc1cccc(OCc2nnn[nH]2)c1)NC1C(=O)N(CC(=O)C2CC2)c2ccccc2N(CC(=O)C2CC2)C1=O [Compound 17-vii, 1,5-Bis-(cyclopropylcarbonylmethyl)-3-(N'-(m-(tetrazoylmethoxy)phenyl)ureido)-1H-1,5-benzodiazepine-2,4(3H,5H)-dione] | 0.011 | 1.8 | 0.004 | 68 | 
CC(=O)NS(=O)(=O)c1cccc(NC(=O)NC2C(=O)N(CC(=O)C3CC3)c3ccccc3N(CC(=O)C3CC3)C2=O)c1 [Compound 17-xi, 1,5-Bis-(cyclopropylcarbonylmethyl)-3-(N'-(m-(acetylsulfamoyl)phenyl)ureido)-1H-1,5-benzodiazepine-2,4(3H,5H)-dione] | 0.006 | > 10 | 0.115 | 39 | 
O=C(Nc1cccc(SCc2nnn[nH]2)c1)NC1C(=O)N(CC(=O)C2CC2)c2ccccc2N(CC(=O)C2CC2)C1=O [Compound 17-xvii] | < 0.001 | 1.3 | 0.001 |  | 30
O=C(O)COc1cccc(NC(=O)NC2C(=O)N(CC(=O)C3CC3)c3ccccc3N(CC(=O)C3CC3)C2=O)c1 [Compound 17-vi, 1,5-Bis-(cyclopropylcarbonylmethyl)-3-(N'-(m-(carboxymethoxy)phenyl)ureido)-1H-1,5-benzodiazepine-2,4(3H,5H)-dione] | 0.003 | 4.4 | 0.016 | 22 | 
CCOC(=O)c1cccc(NC(=O)NC2C(=O)N(CC(=O)C3CC3)c3ccccc3N(CC(=O)C3CC3)C2=O)c1 [Compound 17-i] | 0.007 | 1.35 | 0.14 | 44 | 
O=C(O)Cc1cccc(NC(=O)NC2C(=O)N(CC(=O)N3CCCC3)c3ccccc3N(CC(=O)N3CCCC3)C2=O)c1 [Compound 18-xiii, 1,5-Bis-(pyrrolidinocarbonylmethyl)-3-(N'-(m-(carboxymethyl)phenyl)ureido)-1H-1,5-benzodiazepine-2,4(3H,5H)-dione] | 0.007 | 10.5 | 0.029 | 26 | 

The next lines start with results.

IC50 (gastrin receptor) [µM] | IC50 (CCK-A receptor) [µM] | IC50 (CCK-B receptor) [µM] | Structure (SMILES) | inhibition in vivo at 0.3 mg/kg (gastric acid secretion) [%] | inhibition in vivo at 0.1 mg/kg (gastric acid secretion) [%]
0.007 | 0.86 | 0.054 | Cc1cccc(NC(=O)NC2C(=O)N(CC(=O)N3CCCC3)c3ccccc3N(CC(=O)N3CCCC3)C2=O)c1 [Compound 8a] | 49 | 
0.012 | 0.86 | 0.023 | Cc1cccc(NC(=O)NC2C(=O)N(CC3CC3)c3ccccc3N(CC3CC3)C2=O)c1 [Compound 8o, 1,5-Bis-(cyclopropylmethyl)-3-{N'-(m-tolyl)-ureido}-1H-1,5-benzodiazepine-2,4(3H,5H)-dione] | 60 | 
0.004 | 0.029 | 0.011 | Cc1cccc(NC(=O)NC2C(=O)N(CC(=O)c3ccccc3C)c3ccccc3N(CC(=O)c3ccccc3C)C2=O)c1 [Compound 8d, 1,5-Bis-(o-methylphenacyl)-3-{N'-(m-tolyl)-ureido}-1H-1,5-benzodiazepine-2,4(3H,5H)-dione] | 66 | 
